We go through one compound from CN103910677A, “紫堇定碱衍生物的盐” (Shanghai Yizhi Pharmaceutical Technology Co Ltd, priority 2013, dated 2014).

The data set can be described thus: Stability in aqueous solution (extent of free base precipitation from an aqueous solution of the test compound). The format is physicochemical. The settings on record: known temperature and known period (not specified), 富马酸盐.

In the case of `COc1cc2c3c(c1O)-c1c(ccc(OC)c1OC)C[C@@H]3N(C)CC2` [Ⅱˉ表示的富马酸根的式(Ⅲ)化合物, 紫堇定碱富马酸盐], the aqueous solution stability entry is “特别稳定 and 异常的稳定”.
